This note sets out measurements from patent US12257287B2, “Glucagon-derived peptide and use thereof” (Tianjin Institute of Pharmaceutical Research Co., Ltd., priority 2018, dated 2025).

Data set [1] has as its target T1, GC receptor (Homo sapiens, UniProt P47871).
T1 construct: expressed in transfected cells; host or cells: HEK293 cells
Description: GC receptor mediated cAMP production in vitro (HEK293 cells transfected with GC receptor). The data set is classed as cell-based. The note with it: 20 min at 37° C., read-out: GCGR (nM EC50). From the text:
The medium was removed, the cells were lysed, and cAMP values were detected referring to the detection method described for the assay kit.

Data set [2] can be described thus: Short-term administration: food intake and body weight in DIO mice. The data set is classed as in vivo. The note with it: 30 nmol/kg once every 24 h, twice, − decrease; for Rate of change in food intake (%): at 48 hours vs day before administration; for Body weight change: at 48 hours. As to the method:
Method: diet-induced obese mice (DIO) with an average body weight of 52.5 g were divided into model control and test groups, 5 mice in each group. The test samples were dissolved in 10 mM PBS of pH7.4, injected once every 24 h at a dose of 30 nmol/kg, and administered twice. The model group was injected with solvent. Changes in food intake and body weight at 48 hours were measured, and the change rates were calculated compared to the day before administration.

A short description of data set [3]: physchem. The data set is classed as physicochemical.
Method: 2 mg of the compound was weighed, dissolved in 1 ml of phosphate buffer solutions with different concentrations (10, 20 mM) and different pH values (7.5, 8.0), and centrifuged, and supernatant was taken. The peak area was measured by HPLC (chromatographic column: Aeris widepore XB-C18 3.6 mm, 4.6×150 mm; mobile phase: A: 0.05% TFA, B: 95% acetonitrile; detection wavelength: 214 nm) and compared with a corresponding sample standard solution, and the relative concentration of the test sample solution is calculated.
The mark [4] stands for this setting: pH 7.5, Solubility, pH 7.5, 10 mM phosphate buffer.
The mark [5] stands for this setting: pH 7.5, Solubility, pH 7.5, 20 mM phosphate buffer.
Where [6] appears, read: pH 8, Solubility, pH 8.0, 10 mM phosphate buffer.
Where [7] appears, read: pH 8, Solubility, pH 8.0, 20 mM phosphate buffer.

Values after ≈ are worked out from the molar mass of the structure shown. Numbered stars: 1 amine (or outer) side, 2 acyl side, 3 side chain; on linkers, the order of the positions; unused ones are H or OH. Square brackets hold non-standard residues; d marks the D form. Side chains are listed from the residue outwards. Peptide text beside a SMILES is read from it. * marks the point of attachment. C18 diacid = O=C(O)CCCCCCCCCCCCCCCCC(=O)*; γGlu = O=C(O)[C@H](CCC(=O)[*:2])N[*:1]; AEEA = NCCOCCOCC(=O)O; Aib = CC(C)(N)C(=O)O
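For Solubility in this document: compound added at 2 mg per mL of phosphate buffer, with the dissolved amount determined in the supernatant.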

T1 sequence (P47871 26-477): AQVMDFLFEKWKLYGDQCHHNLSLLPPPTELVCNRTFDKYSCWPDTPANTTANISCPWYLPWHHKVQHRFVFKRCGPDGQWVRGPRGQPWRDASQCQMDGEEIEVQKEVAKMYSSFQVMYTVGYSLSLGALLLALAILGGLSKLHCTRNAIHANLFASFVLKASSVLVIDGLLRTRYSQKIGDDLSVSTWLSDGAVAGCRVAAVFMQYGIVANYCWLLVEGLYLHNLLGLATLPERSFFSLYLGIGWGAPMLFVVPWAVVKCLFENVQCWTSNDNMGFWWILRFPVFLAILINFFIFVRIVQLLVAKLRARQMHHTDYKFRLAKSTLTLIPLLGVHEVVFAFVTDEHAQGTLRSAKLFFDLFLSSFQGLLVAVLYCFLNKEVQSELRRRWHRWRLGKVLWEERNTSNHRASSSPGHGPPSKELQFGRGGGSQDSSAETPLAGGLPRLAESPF

`CC[C@H](C)[C@H](NC(=O)[C@H](Cc1ccccc1)NC(=O)[C@H](CCC(=O)O)NC(=O)[C@H](CCCCNC(=O)COCCOCCNC(=O)COCCOCCNC(=O)CC[C@H](NC(=O)CCCCCCCCCCCCCCCCC(=O)O)C(=O)O)NC(=O)[C@H](C)NC(=O)[C@H](C)NC(=O)[C@H](CCCNC(=N)N)NC(=O)[C@H](CCC(=O)O)NC(=O)[C@H](CCC(=O)O)NC(=O)[C@H](CC(C)C)NC(=O)[C@H](Cc1ccc(O)cc1)NC(=O)[C@H](CCCCN)NC(=O)[C@H](CO)NC(=O)[C@H](Cc1ccc(O)cc1)NC(=O)[C@H](CC(=O)O)NC(=O)[C@H](CO)NC(=O)[C@@H](NC(=O)[C@H](Cc1ccccc1)NC(=O)[C@@H](NC(=O)CNC(=O)[C@H](CCC(N)=O)NC(=O)C(C)(C)NC(=O)[C@@H](N)Cc1c[nH]cn1)[C@@H](C)O)[C@@H](C)O)C(=O)N[C@@H](C)C(=O)N[C@@H](Cc1c[nH]c2ccccc12)C(=O)N[C@@H](CC(C)C)C(=O)N[C@@H](CCC(=O)O)C(=O)N[C@@H](C)C(=O)NCC(=O)NCC(=O)N1CCC[C@H]1C(=O)N[C@@H](CO)C(=O)N[C@@H](CO)C(=O)NCC(N)=O` [Compound 28] (H-H[Aib]QGTFTSDYSKYLEERAAK([AEEA-AEEA-γGlu-C18 diacid])EFIAWLEAGGPSSG-NH2; N-terminus assumed): in data set [1], the concentration giving a half-maximal response (EC50) was found to be 0.026 nM. In data set [2], the “Rate of change in food intake (%)” value is on record as −49% and the “Body weight change” value was -1.3 g.
Regarding `CCCCCCCCCCCCCCCC(=O)N[C@@H](CCC(=O)N[C@@H](CCC(=O)NCCCC[C@H](NC(=O)[C@H](CC(=O)O)NC(=O)[C@H](CO)NC(=O)[C@@H](NC(=O)[C@H](Cc1ccccc1)NC(=O)[C@@H](NC(=O)CNC(=O)[C@H](CCC(N)=O)NC(=O)C(C)(C)NC(=O)[C@@H](N)Cc1c[nH]cn1)[C@@H](C)O)[C@@H](C)O)C(=O)N[C@@H](CO)C(=O)N[C@@H](CCCCN)C(=O)N[C@@H](Cc1ccc(O)cc1)C(=O)N[C@@H](CC(C)C)C(=O)N[C@@H](CCC(=O)O)C(=O)N[C@@H](CCC(=O)O)C(=O)N[C@@H](CCCNC(=N)N)C(=O)N[C@@H](C)C(=O)N[C@@H](C)C(=O)N[C@@H](CCCCN)C(=O)N[C@@H](CCC(=O)O)C(=O)N[C@@H](Cc1ccccc1)C(=O)N[C@H](C(=O)N[C@@H](CCC(=O)O)C(=O)N[C@@H](Cc1c[nH]c2ccccc12)C(=O)N[C@@H](CC(C)C)C(=O)N[C@@H](CC(C)C)C(=O)N[C@@H](CCC(=O)O)C(=O)N[C@@H](C)C(=O)NCC(=O)NCC(=O)N1CCC[C@H]1C(=O)N[C@@H](CO)C(=O)N[C@@H](CO)C(=O)NCC(N)=O)C(C)C)C(=O)O)C(=O)O` [Compound 25] (HELM PEPTIDE1{H.[Aib].Q.G.T.F.T.S.D.K.S.K.Y.L.E.E.R.A.A.K.E.F.V.E.W.L.L.E.A.G.G.P.S.S.G.[am]}|PEPTIDE2{[CCCCCCCCCCCCCCCC(=O)[*:2]].[gGlu].[gGlu]}$PEPTIDE1,PEPTIDE2,10:R3-3:R2$$$V2.0; N-terminus assumed), the 50% effective concentration (EC50) in data set [1] was 0.278 nM. Besides, the solubility in data set [3] (setting [4]) is 300 µg/mL (≈ 69.2 µM); in data set [3] (setting [5]), 100 µg/mL (≈ 23.1 µM); in data set [3] (setting [6]), 500 µg/mL (≈ 115 µM); in data set [3] (setting [7]), 200 µg/mL (≈ 46.1 µM).
`CC[C@H](C)[C@H](NC(=O)[C@H](Cc1ccccc1)NC(=O)[C@H](CCC(=O)O)NC(=O)[C@H](CCCCN)NC(=O)[C@H](C)NC(=O)[C@H](C)NC(=O)[C@H](CCCNC(=N)N)NC(=O)[C@H](CCC(=O)O)NC(=O)[C@H](CC(=O)O)NC(=O)[C@H](CC(C)C)NC(=O)[C@H](Cc1ccc(O)cc1)NC(=O)[C@H](CCCCN)NC(=O)[C@H](CO)NC(=O)[C@H](CCCCNC(=O)COCCOCCNC(=O)COCCOCCNC(=O)CC[C@H](NC(=O)CCCCCCCCCCCCCCCCC(=O)O)C(=O)O)NC(=O)[C@H](CC(=O)O)NC(=O)[C@H](CO)NC(=O)[C@@H](NC(=O)[C@H](Cc1ccccc1)NC(=O)[C@@H](NC(=O)CNC(=O)[C@H](CCC(N)=O)NC(=O)[C@H](CO)NC(=O)[C@@H](N)Cc1c[nH]cn1)[C@@H](C)O)[C@@H](C)O)C(=O)N[C@@H](C)C(=O)N[C@@H](Cc1c[nH]c2ccccc12)C(=O)N[C@@H](CC(C)C)C(=O)N[C@@H](CCC(=O)O)C(=O)N[C@@H](C)C(=O)NCC(=O)NCC(=O)N1CCC[C@H]1C(=O)N[C@@H](CO)C(=O)N[C@@H](CO)C(=O)NCC(N)=O` [Compound 36] (H-HSQGTFTSDK([AEEA-AEEA-γGlu-C18 diacid])SKYLDERAAKEFIAWLEAGGPSSG-NH2; N-terminus assumed): in data set [1], the EC50 worked out at 0.069 nM. Further, in data set [2], the “Rate of change in food intake (%)” value is reported as −46% and the “Body weight change” value was -1.7 g.
For the compound `CCCCCCCCCCCCCCCC(=O)N[C@@H](CCC(=O)N[C@@H](CCC(=O)NCCCC[C@H](NC(=O)[C@H](C)NC(=O)[C@H](CCCCN)NC(=O)[C@H](CCCNC(=N)N)NC(=O)[C@H](CCC(=O)O)NC(=O)[C@H](CCC(=O)O)NC(=O)[C@H](CC(C)C)NC(=O)[C@H](Cc1ccc(O)cc1)NC(=O)[C@H](CCCCN)NC(=O)[C@H](CO)NC(=O)[C@H](Cc1ccc(O)cc1)NC(=O)[C@H](CC(=O)O)NC(=O)[C@H](CO)NC(=O)[C@@H](NC(=O)[C@H](Cc1ccccc1)NC(=O)[C@@H](NC(=O)CNC(=O)[C@H](CCC(N)=O)NC(=O)C(C)(C)NC(=O)[C@@H](N)Cc1c[nH]cn1)[C@@H](C)O)[C@@H](C)O)C(=O)N[C@@H](CCC(=O)O)C(=O)N[C@@H](Cc1ccccc1)C(=O)N[C@H](C(=O)N[C@@H](CCC(=O)O)C(=O)N[C@@H](Cc1c[nH]c2ccccc12)C(=O)N[C@@H](CC(C)C)C(=O)N[C@@H](CCC(=O)O)C(=O)NCC(=O)NCC(=O)N1CCC[C@H]1C(=O)N[C@@H](CO)C(=O)N[C@@H](CO)C(=O)NCC(N)=O)C(C)C)C(=O)O)C(=O)O` [Compound 62] (HELM PEPTIDE1{H.[Aib].Q.G.T.F.T.S.D.Y.S.K.Y.L.E.E.R.K.A.K.E.F.V.E.W.L.E.G.G.P.S.S.G.[am]}|PEPTIDE2{[CCCCCCCCCCCCCCCC(=O)[*:2]].[gGlu].[gGlu]}$PEPTIDE1,PEPTIDE2,20:R3-3:R2$$$V2.0; N-terminus assumed), in data set [1], the 50% effective concentration (EC50) worked out at 0.156 nM. Further, the solubility in data set [3] (setting [4]) turned out to be 1170 µg/mL (≈ 276 µM); in data set [3] (setting [5]), 850 µg/mL (≈ 200 µM); in data set [3] (setting [6]), 1630 µg/mL (≈ 384 µM); in data set [3] (setting [7]), 1590 µg/mL (≈ 375 µM).
On to `CC(C)C[C@H](NC(=O)[C@H](Cc1c[nH]c2ccccc12)NC(=O)[C@H](CCC(=O)O)NC(=O)[C@@H](NC(=O)[C@H](Cc1ccccc1)NC(=O)[C@H](CCC(=O)O)NC(=O)[C@H](CCCCNC(=O)COCCOCCNC(=O)COCCOCCNC(=O)CC[C@H](NC(=O)CCCCCCCCCCCCCCCCC(=O)O)C(=O)O)NC(=O)[C@H](C)NC(=O)[C@H](CCCCN)NC(=O)[C@H](CCCNC(=N)N)NC(=O)[C@H](CCC(=O)O)NC(=O)[C@H](CC(=O)O)NC(=O)[C@H](CC(C)C)NC(=O)[C@H](Cc1ccc(O)cc1)NC(=O)[C@H](CCCCN)NC(=O)[C@H](CO)NC(=O)[C@H](Cc1ccc(O)cc1)NC(=O)[C@H](CC(=O)O)NC(=O)[C@H](CO)NC(=O)[C@@H](NC(=O)[C@H](Cc1ccccc1)NC(=O)[C@@H](NC(=O)CNC(=O)[C@H](CCC(N)=O)NC(=O)C(C)(C)NC(=O)[C@@H](N)Cc1c[nH]cn1)[C@@H](C)O)[C@@H](C)O)C(C)C)C(=O)N[C@@H](CCC(=O)O)C(=O)N[C@@H](C)C(=O)NCC(=O)NCC(=O)N1CCC[C@H]1C(=O)N[C@@H](CO)C(=O)N[C@@H](CO)C(=O)NCC(N)=O` [Compound 42] (H-H[Aib]QGTFTSDYSKYLDERKAK([AEEA-AEEA-γGlu-C18 diacid])EFVEWLEAGGPSSG-NH2; N-terminus assumed), for which, in data set [1], the concentration for a half-maximal effect (EC50) was determined as 0.024 nM. For the same compound, the solubility in data set [3] (setting [4]) was 1720 µg/mL (≈ 380 µM); in data set [3] (setting [5]), 1510 µg/mL (≈ 334 µM); in data set [3] (setting [6]), more than 2000 µg/mL; in data set [3] (setting [7]) it was more than 2000 µg/mL.
Turning to `CCCCCCCCCCCCCCCC(=O)N[C@@H](CCC(=O)N[C@@H](CCC(=O)NCCCC[C@H](NC(=O)[C@H](CC(=O)O)NC(=O)[C@H](CO)NC(=O)[C@@H](NC(=O)[C@H](Cc1ccccc1)NC(=O)[C@@H](NC(=O)CNC(=O)[C@H](CCC(N)=O)NC(=O)C(C)(C)NC(=O)[C@@H](N)Cc1c[nH]cn1)[C@@H](C)O)[C@@H](C)O)C(=O)N[C@@H](CO)C(=O)N[C@@H](CCCCN)C(=O)N[C@@H](Cc1ccc(O)cc1)C(=O)N[C@@H](CC(C)C)C(=O)N[C@@H](CCC(=O)O)C(=O)N[C@@H](CCC(=O)O)C(=O)N[C@@H](CCCNC(=N)N)C(=O)N[C@@H](C)C(=O)N[C@@H](C)C(=O)N[C@@H](CCCCN)C(=O)N[C@@H](CCC(=O)O)C(=O)N[C@@H](Cc1ccccc1)C(=O)N[C@H](C(=O)N[C@@H](C)C(=O)N[C@@H](Cc1c[nH]c2ccccc12)C(=O)N[C@@H](CC(C)C)C(=O)N[C@@H](CC(C)C)C(=O)N[C@@H](CCC(=O)O)C(=O)NCC(=O)NCC(=O)N1CCC[C@H]1C(=O)N[C@@H](CO)C(=O)N[C@@H](CO)C(=O)NCC(N)=O)[C@@H](C)CC)C(=O)O)C(=O)O` [Compound 16] (HELM PEPTIDE1{H.[Aib].Q.G.T.F.T.S.D.K.S.K.Y.L.E.E.R.A.A.K.E.F.I.A.W.L.L.E.G.G.P.S.S.G.[am]}|PEPTIDE2{[CCCCCCCCCCCCCCCC(=O)[*:2]].[gGlu].[gGlu]}$PEPTIDE1,PEPTIDE2,10:R3-3:R2$$$V2.0; N-terminus assumed), the half-maximal effective concentration (EC50) in data set [1] is 0.092 nM. Moreover, the solubility came out at 140 µg/mL (≈ 33.2 µM) in data set [3] (setting [4]), 50 µg/mL (≈ 11.8 µM) in data set [3] (setting [5]), 160 µg/mL (≈ 37.9 µM) in data set [3] (setting [6]) and 200 µg/mL (≈ 47.4 µM) in data set [3] (setting [7]).
